Assay: Water (moisture) content by Karl Fischer method
Format: physicochemical
Settings: for Water content tested by KF method: isolated impurity fraction from preparative HPLC
Procedure: 1. Water content: Water content was estimated by karl fischer (KF) method wherein suitable quantity of methanol was taken in the flask and titrated with karl fischer reagent to neutralize the methanol. Then weighed quantity of the sample is added to the flask and titrated to the end point.

With `CCOP(=O)(O)OCCCN1CCNCC1` [0.21 RRT, ethyl (3-(piperazin-1-yl)propyl) hydrogen phosphate] the “Water content tested by KF method” value was 2.69 % by weight.

In the case of `O=P1(N(CCCl)CCCl)NCCCO1` (stereo not shown) [Cyclophosphamide, 2-[bis(2-chloroethyl)amino]tetrahydro-2H-1,3,2-oxazaphosphorine 2-oxide monohydrate], the “Water content in the vials” value (after drying under vacuum in lyophilizer) is reported as “approximately 1%” and the “Water content of the input cyclophosphamide monohydrate” value (input drug substance, before drying) is reported as “*Water content of the input cyclophosphamide monohydrate is 6.25% w/w”.

With `CCOCCN(CCCl)P1(=O)NCCCO1` (stereo not shown) [0.75 RRT, 2-((2-chloroethyl)(2-ethoxyethyl)amino)-1,3,2-oxazaphosphinane 2-oxide] the “Water content tested by KF method” value was 2.71 % by weight.

From US10849916B2 (priority 2014, dated 2020)
